Laboratory results taken from EP4806435A1, “DIHYDROCHROMENE-DERIVATIVE-CONTAINING THERAPEUTIC AGENT FOR CANCER” (Sumitomo Pharma Co., Ltd., priority 2023, dated 2025).

Tests used:
[1] = tested on: U-87 cells (IDH1 wild-type); assay: Cytotoxicity, sphere culture with LDL, combination with ezetimibe (ATP); format: cell-based, human; conditions: 7 days, LDL 5 µg/mL
Description: U-87 cells were cultured for 7 days in sphere medium supplemented with LDL at a concentration of 5 µg/mL, with either ezetimibe (a cholesterol absorption inhibitor) added at 3.3, 10, or 30 µM, Compound 1 added at 1 µM, or a combination of both agents. Cell viability was calculated in the same manner as in Example 12, and the cytotoxic effects of each treatment were compared between single-agent and combination conditions.

[2] = tested on: IDH1 R132H mutant U-87 cells; assay: Cytotoxicity assay, sphere culture with LDL supplementation (ATP); format: cell-based, human; conditions: 1 µM; 7 days sphere culture; LDL 5 µg/mL
Description: U-87 cells were established with a tetracycline-inducible IDH1 R132H mutation expression system. The cells were cultured in the presence of doxycycline (1 µM), a tetracycline derivative, for 5 days to induce the IDH1 R132H mutation. After induction of the mutation, the cells were transferred to sphere culture medium (containing B-27 supplement, epidermal growth factor, cell proliferation factors, insulin, and low-density lipoprotein [LDL]), and cultured for 7 days under sphere-forming conditions after the addition of Compound 1 (1 µM). The LDL concentration in the medium was 5 µg/mL. After incubation, cellular ATP levels were quantified as an indicator of cell viability, and cell viability was calculated as the ratio relative to ATP levels under vehicle-only conditions. Using this approach, the cytotoxic effects of the present compound under LDL-supplemented conditions were compared between wild-type (doxycycline-) and mutant (doxycycline+) cells.

SMILES: CC1(C)Oc2cc(Cl)ccc2[C@@H]2OCC3(CCN(CCn4ccnc4)CC3)C[C@H]21 [Compound 1, (4'aR,10'bR)-8'-chloro-1-[2-(1H-imidazol-1-yl)ethyl]-5',5'-dimethyl-4'a,10'b-dihydro-2'H,4'H,5'H-spiro[piperidine-4,3'-pyrano[3,2-c][1]benzopyran] diphosphate]
- cytotoxicity of the combination of Compound 1 and ezetimibe ([1]; Compound 1 1 µM + ezetimibe 3.3, 10, or 30 µM): potent cytotoxic effects
- cytotoxicity, single agent ([1]; Compound 1 at 1 µM): low cytotoxicity
- cytotoxicity in mutant versus wild-type cells [2]: statistically-significantly stronger cytotoxicity in IDH1 R132H mutant cells compared with wild-type cells
